Results on 1 compound are retold here after article PMC3407089, “Influence of GABAA Receptor α Subunit Isoforms on the Benzodiazepine Binding Site” (PLoS ONE, 2012).

The target in test [1] is α2S205Cβ2γ2 GABAA receptor (Rattus norvegicus, UniProt P18508+P23576, S233C). In words: Covalent reaction of 3-NCS at the binding level (residual radioligand binding, HEK293 membranes). As for the experimental part: (§1) cDNAs coding for the αx (x = 1, 2, 3, 6), β2, and γ2S subunits DNA (20 µg : 20 µg : 20 µg) per 9 cm diameter dish were transfected in human embryonic kidney (HEK) 293 cells (American Type of Culture Collection, MD, USA, CRL 1573) using the calcium phosphate precipitation technique. For α5 containing receptors β2 was replaced by β1. […] Culturing of cells and membrane preparation were done as described before.
Sequence of α2S205Cβ2γ2 GABAA receptor (P23576 29-451 S233C): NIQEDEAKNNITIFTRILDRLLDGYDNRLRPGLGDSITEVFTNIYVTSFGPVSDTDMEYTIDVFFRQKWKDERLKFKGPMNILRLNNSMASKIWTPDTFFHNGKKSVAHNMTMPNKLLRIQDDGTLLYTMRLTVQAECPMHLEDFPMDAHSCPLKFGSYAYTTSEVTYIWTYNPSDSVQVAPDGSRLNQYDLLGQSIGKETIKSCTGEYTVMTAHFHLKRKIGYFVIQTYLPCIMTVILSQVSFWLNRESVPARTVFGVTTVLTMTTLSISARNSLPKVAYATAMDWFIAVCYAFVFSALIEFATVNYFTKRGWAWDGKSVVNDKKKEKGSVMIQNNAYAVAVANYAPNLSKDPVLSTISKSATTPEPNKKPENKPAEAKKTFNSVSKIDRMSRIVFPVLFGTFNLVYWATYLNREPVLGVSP
Sequence of α2S205Cβ2γ2 GABAA receptor (P18508 39-466, stated change not applied): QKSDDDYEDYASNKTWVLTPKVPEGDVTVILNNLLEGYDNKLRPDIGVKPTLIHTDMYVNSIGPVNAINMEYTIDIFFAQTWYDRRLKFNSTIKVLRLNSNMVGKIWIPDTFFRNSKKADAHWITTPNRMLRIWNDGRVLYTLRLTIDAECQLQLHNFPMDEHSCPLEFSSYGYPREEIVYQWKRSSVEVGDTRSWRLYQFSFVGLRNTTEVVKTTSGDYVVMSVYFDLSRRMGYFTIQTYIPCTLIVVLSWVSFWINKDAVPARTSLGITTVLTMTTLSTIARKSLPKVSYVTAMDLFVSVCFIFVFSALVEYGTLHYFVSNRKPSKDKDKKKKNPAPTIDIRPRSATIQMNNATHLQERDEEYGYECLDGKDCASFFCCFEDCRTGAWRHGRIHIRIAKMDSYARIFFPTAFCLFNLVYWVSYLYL
Sequence of α2S205Cβ2γ2 GABAA receptor (P63138 26-474 partner): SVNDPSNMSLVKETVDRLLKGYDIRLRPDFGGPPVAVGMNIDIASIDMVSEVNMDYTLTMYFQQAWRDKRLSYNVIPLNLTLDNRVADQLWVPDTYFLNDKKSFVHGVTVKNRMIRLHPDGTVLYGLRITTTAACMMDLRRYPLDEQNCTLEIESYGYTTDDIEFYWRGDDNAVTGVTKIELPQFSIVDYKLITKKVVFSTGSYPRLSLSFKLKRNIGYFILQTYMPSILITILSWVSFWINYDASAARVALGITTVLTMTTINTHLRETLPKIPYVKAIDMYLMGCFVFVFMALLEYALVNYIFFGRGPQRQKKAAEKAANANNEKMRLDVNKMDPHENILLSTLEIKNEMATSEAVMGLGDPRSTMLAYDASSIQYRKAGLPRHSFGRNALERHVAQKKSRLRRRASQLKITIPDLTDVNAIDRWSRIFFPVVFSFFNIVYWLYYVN
(§2) As detailed in previous work, [30], [33] this procedure included three steps: incubation of membranes expressing recombinant wild type or mutant receptors with the reactive agent followed by extensive washing of the membranes in order to remove non-reacted compound and a radioactive ligand binding assay to determine residual binding. No covalent reaction would result in 100% residual binding, and 100% covalent reaction would result in 0% residual binding.
(§3) Briefly, the membranes were re-suspended in phosphate buffer (100 mM KCl, 10 mM KH2PO4, 0.1 mM EDTA, pH 7.4) using a Glass/Teflon homogenizer. 0.1–1.0 mg/mL of protein were incubated in a total volume of 360 µL with either 10 µM (determination of degree of covalent reaction) or several concentrations of 3-NCS for 30 min on ice. Membranes were collected with rapid filtration on a round 7 mm diameter glass fiber filter (GF/C; Whatman) that was placed on a round 24 mm diameter glass fiber filter (GF/C; Whatman), both pre-washed with phosphate buffer. The reaction of 3-NCS with the receptor was stopped by washing of the filters six times with 5 mL phosphate buffer, each. The small filters with the deposited membranes were incubated in 0.12 mL phosphate buffer containing 5 nM [^3H]Ro15–1788. After 30 min the 7 mm filter was placed on a 24 mm filter and washed six times with 5 mL phosphate buffer each. Radioactivity was determined by liquid scintillation counting. Non-specific binding was determined in the presence of 100 µM Ro 15–1788. In control experiments, washing efficiency was estimated by placing radioactivity on the small filter. More than 99.95% of the radioactivity was removed (not shown).
(§4) Concentration response curves for 3-NCS were fitted with the equation C(c) = Cmax/(1+(EC50/c)), where c is the concentration of 3-NCS, EC50 the concentration of 3-NCS where half maximal covalent reaction was observed, Cmax is the maximal extent of the covalent reaction and C the measured extent of the covalent reaction.

Test [2] has as its target α2S204Cβ2γ2 GABAA receptor (Rattus norvegicus, UniProt P18508+P23576, S232C). The description is as above. As for the experimental part: as §1, §2, §3, §4
For test [3], the target named is α2T206Cβ2γ2 GABAA receptor (Rattus norvegicus, UniProt P18508+P23576, T234C). The description is as above. As for the experimental part: as §1, §2, §3, §4
Sequence of α2T206Cβ2γ2 GABAA receptor (P23576 29-451 T234C): as the sequence (P23576 29-451 S233C) above, with C205S, T206C counted along it
Sequence of α2T206Cβ2γ2 GABAA receptor (P18508 39-466): as the sequence (P18508 39-466, stated change not applied) above
Sequence of α2T206Cβ2γ2 GABAA receptor (P63138 26-474 partner): as the sequence (P63138 26-474 partner) above
Test [4] addresses α1T206Cβ2γ2 GABAA receptor (Rattus norvegicus, UniProt P18508+P62813, T233C). The test is described as above. The note with it: 3-NCS 30 min on ice, washed; residual [^3H]Ro15–1788 binding. As for the experimental part:
as §1, §2, §3, §4

The target in test [5] is α5T210Cβ1γ2 GABAA receptor (Rattus norvegicus, UniProt P18508+P19969, T241C). The test is described as above. As for the experimental part:
as §1, §2, §3, §4

For test [6], the target named is α5S209Cβ1γ2 GABAA receptor (Rattus norvegicus, UniProt P18508+P19969, S240C). The description is as above. As for the experimental part: as §1, §2, §3, §4
Sequence of α5S209Cβ1γ2 GABAA receptor (P19969 26-464 S240C): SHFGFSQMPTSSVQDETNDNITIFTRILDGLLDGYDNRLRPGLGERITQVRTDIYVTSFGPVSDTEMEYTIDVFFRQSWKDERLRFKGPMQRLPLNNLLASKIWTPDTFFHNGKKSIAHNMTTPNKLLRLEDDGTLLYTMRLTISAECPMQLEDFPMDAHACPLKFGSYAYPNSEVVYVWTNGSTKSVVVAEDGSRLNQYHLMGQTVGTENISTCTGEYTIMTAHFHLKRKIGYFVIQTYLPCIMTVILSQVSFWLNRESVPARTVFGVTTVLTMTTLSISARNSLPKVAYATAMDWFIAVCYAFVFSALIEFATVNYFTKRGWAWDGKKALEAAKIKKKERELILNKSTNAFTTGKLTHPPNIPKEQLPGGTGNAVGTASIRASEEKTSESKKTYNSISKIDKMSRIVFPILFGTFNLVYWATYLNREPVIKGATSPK
Sequence of α5S209Cβ1γ2 GABAA receptor (P18508 39-466, stated change not applied): as the sequence (P18508 39-466, stated change not applied) above
Sequence of α5S209Cβ1γ2 GABAA receptor (P15431 26-474 partner): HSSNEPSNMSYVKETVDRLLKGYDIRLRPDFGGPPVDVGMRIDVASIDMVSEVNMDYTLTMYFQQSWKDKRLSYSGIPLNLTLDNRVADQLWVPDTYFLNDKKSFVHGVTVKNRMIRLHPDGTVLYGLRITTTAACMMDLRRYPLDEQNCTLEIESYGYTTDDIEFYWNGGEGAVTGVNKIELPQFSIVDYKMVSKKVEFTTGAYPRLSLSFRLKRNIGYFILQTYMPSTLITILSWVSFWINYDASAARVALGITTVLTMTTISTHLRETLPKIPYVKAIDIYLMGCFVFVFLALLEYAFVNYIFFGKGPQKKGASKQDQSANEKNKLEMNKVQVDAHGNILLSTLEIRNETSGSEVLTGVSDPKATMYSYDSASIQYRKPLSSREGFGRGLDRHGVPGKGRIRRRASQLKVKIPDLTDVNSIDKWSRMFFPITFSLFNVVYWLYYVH
For test [7], the target named is T1, α1S205Cβ2γ2 GABAA receptor (Rattus norvegicus, UniProt P18508+P62813, S232C). Described as above. The note with it: 3-NCS 30 min on ice, washed; residual [^3H]Ro15–1788 binding. As for the experimental part: as §1, §2, §3, §4
T1 sequence (P62813 28-455 S232C): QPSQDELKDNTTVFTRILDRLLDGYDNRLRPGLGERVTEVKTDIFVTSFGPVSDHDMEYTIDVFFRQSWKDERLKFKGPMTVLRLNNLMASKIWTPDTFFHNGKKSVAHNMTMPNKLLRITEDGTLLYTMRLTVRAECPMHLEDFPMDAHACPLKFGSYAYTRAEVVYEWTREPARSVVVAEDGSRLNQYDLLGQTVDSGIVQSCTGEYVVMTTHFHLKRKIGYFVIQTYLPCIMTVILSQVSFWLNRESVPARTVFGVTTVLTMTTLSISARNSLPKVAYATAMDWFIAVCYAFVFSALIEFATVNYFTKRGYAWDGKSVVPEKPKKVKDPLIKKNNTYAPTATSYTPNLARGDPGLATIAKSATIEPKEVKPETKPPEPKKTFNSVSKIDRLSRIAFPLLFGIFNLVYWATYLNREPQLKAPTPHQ
T1 sequence (P18508 39-466): as the sequence (P18508 39-466, stated change not applied) above
T1 sequence (P63138 26-474 partner): as the sequence (P63138 26-474 partner) above
A further test has as its system mutated GABAA receptors. In words: Time course of covalent reaction at the binding level (preliminary experiments). The note with it: 10 µM and 1 µM 3-NCS, not shown. As for the experimental part: as §2
as §3, with “The reaction of 3-NCS with the receptor was stopped by washing of the filters six times with 5 mL phosphate buffer, each. The small filters with the deposited membranes were incubated in 0.12 mL phosphate buffer containing 5 nM [^3H]Ro15–1788. After 30 min the 7 mm filter was placed on a 24 mm filter and washed six times with 5 mL phosphate buffer each.” left out

The target in test [8] is α6S203Cβ2γ2 GABAA receptor. In words: Covalent reaction of 3-NCS at the binding level (residual radioligand binding, HEK293 membranes). Further details: key: n.r.: no covalent reaction. The note with it: 3-NCS 30 min on ice, washed; [^3H]15–4513 as radioactive ligand. As for the experimental part:
as §1, §2
as §3, with “The reaction of 3-NCS with the receptor was stopped by washing of the filters six times with 5 mL phosphate buffer, each. The small filters with the deposited membranes were incubated in 0.12 mL phosphate buffer containing 5 nM [^3H]Ro15–1788. After 30 min the 7 mm filter was placed on a 24 mm filter and washed six times with 5 mL phosphate buffer each.” left out
as §4

Test [9] addresses α6N204Cβ2γ2 GABAA receptor. The test is described as above. Further details: key: n.r.: no covalent reaction. The note with it: 3-NCS 30 min on ice, washed; [^3H]15–4513 as radioactive ligand. As for the experimental part:
as §1, §2
as §3, with “The reaction of 3-NCS with the receptor was stopped by washing of the filters six times with 5 mL phosphate buffer, each. The small filters with the deposited membranes were incubated in 0.12 mL phosphate buffer containing 5 nM [^3H]Ro15–1788. After 30 min the 7 mm filter was placed on a 24 mm filter and washed six times with 5 mL phosphate buffer each.” left out
as §4

In test [10] the target is α1S204Cβ2γ2 GABAA receptor. The description is as above. Further details: key: n.r.: no covalent reaction. The note with it: 3-NCS 30 min on ice, washed; residual [^3H]Ro15–1788 binding. As for the experimental part: as §1, §2
as §3, with “The reaction of 3-NCS with the receptor was stopped by washing of the filters six times with 5 mL phosphate buffer, each. The small filters with the deposited membranes were incubated in 0.12 mL phosphate buffer containing 5 nM [^3H]Ro15–1788. After 30 min the 7 mm filter was placed on a 24 mm filter and washed six times with 5 mL phosphate buffer each.” left out
as §4

In test [11] the test system is α1S204Cβ2γ2 GABAA receptor. Further details: method as in PMID 19804380. The note with it: 10 µM 3-NCS; cited from earlier work.
In test [12] the target is T1, α1S205Cβ2γ2 GABAA receptor. Further details: method as in PMID 19804380. The note with it: 10 µM 3-NCS; cited from earlier work.
For test [13], the target named is wild-type α1β2γ2 receptors. Further details: method as in PMID 19804380. The note with it: cited from earlier work.
Setting [14] is: 3-NCS 30 min on ice, washed, residual [^3H]Ro15–1788 binding.
[15] abbreviates: 0.5 h, 10 µM 3-NCS, mutation homologous to α1S205, n = 3, read-out: Extent of covalent reaction (100% minus % residual binding).
Setting [16] is: 0.5 h, 10 µM 3-NCS, mutation homologous to α1T206, n = 3, read-out: Extent of covalent reaction (100% minus % residual binding).

Read-outs that look alike come from different tables or passages of the source.

Sequence of α2S204Cβ2γ2 GABAA receptor (P23576 29-451 S232C): as the sequence (P23576 29-451 S233C) above, with S204C, C205S counted along it
Sequence of α2S204Cβ2γ2 GABAA receptor (P18508 39-466): as the sequence (P18508 39-466, stated change not applied) above
Sequence of α2S204Cβ2γ2 GABAA receptor (P63138 26-474 partner): as the sequence (P63138 26-474 partner) above
Sequence of α5T210Cβ1γ2 GABAA receptor (P19969 26-464 T241C): as the sequence (P19969 26-464 S240C) above, with C215S, T216C counted along it
Sequence of α5T210Cβ1γ2 GABAA receptor (P18508 39-466): as the sequence (P18508 39-466, stated change not applied) above
Sequence of α5T210Cβ1γ2 GABAA receptor (P15431 26-474 partner): as the sequence (P15431 26-474 partner) above
Sequence of α1T206Cβ2γ2 GABAA receptor (P62813 28-455 T233C): as the sequence (P62813 28-455 S232C) above, with C205S, T206C counted along it
Sequence of α1T206Cβ2γ2 GABAA receptor (P18508 39-466): as the sequence (P18508 39-466, stated change not applied) above
Sequence of α1T206Cβ2γ2 GABAA receptor (P63138 26-474 partner): as the sequence (P63138 26-474 partner) above

For `CN1C(=O)C(N=C=S)N=C(c2ccccc2)c2cc([N+](=O)[O-])ccc21` (centres unmarked) [3-NCS], the EC50 – broadly, the concentration giving half of the maximal effect – in [1] (setting [14]) was determined as 6600 ± 5400 nM; in test [2] (setting [14]) it was 3200 ± 2300 nM; in test [3] (setting [14]) it was 190 ± 56 nM; in test [4], 82 ± 28 nM; in test [5] (setting [14]), 450 ± 150 nM; in [6] (setting [14]), 4100 ± 2200 nM. Further, the EC50 in test [7] was 630 ± 180 nM. Besides, the inhibition at 10 µM in test [1] (setting [15]) is 39%; in [2] (0.5 h, 10 µM 3-NCS, mutation homologous to α1S204, n = 3, read-out: Extent of covalent reaction (100% minus % residual binding)), 52%; in [3] (setting [16]), 54%; in test [5] (setting [16]), 73%; in test [6] (setting [15]), 54%. In the test on mutated GABAA receptors, the “Time to maximum of covalent reaction” value is at most 15 s. Also, the figures for the “EC50 of the covalent reaction” value in test [8], in test [9] and in test [10] were “n.r. ^a”, “n.r. ^a” and “n.r”, respectively. For the same compound, the “Covalent reaction with 3-NCS (in words)” value in [11] is listed as “did not covalently react”; in test [12], “resulted in covalent reaction”. The Ki – broadly, the dissociation constant of the complex between target and ligand, obtained from inhibition or displacement – is 340 ± 16 nM in test [13] (radioligand [^3H]Ro15–1788, read-out: Ki, displacement of [^3H]Ro15–1788) and 240 ± 55 nM in test [13] (radioligand [^3H]flunitrazepam, read-out: Ki, displacement of [^3H]flunitrazepam).
